In a melting point compilation (Tetko et al.; mined from patent text by program, amines drawn as free bases though some values may be those of a salt):

Compared with `COC(=O)C1CSC(c2cc3ccccc3n2C)=N1` (stereo not drawn), `CC(=O)OCCN1CC(c2ccccc2)NC1=O` (stereo not drawn) is higher in melting point: 78 to 80 °C for the first, 88 to 90 °C for the second.

First: Nc1cc(-n2ccnc2)c(F)cc1[N+](=O)[O-]
Second: O=C(O)CNC(=O)c1ccc([N+](=O)[O-])c(F)c1
The melting point of the first is lower: 122 to 123 °C for the first, 136 to 138 °C for the second.

First: CC(=O)Nc1nc2ncn(C)c(=S)n2n1
Second: CCCN1CCc2c(cccc2NC(C)=O)C1
The melting point of the first is higher: > 300 °C for the first, 123 °C for the second.

Compared with `COc1cc(OC)c2c(c1)N1CCCCC1CC2=O` (stereo not drawn), `CC1(C2CCCC2)Cc2cc(OCC(=O)O)c(Cl)c(Cl)c2C1=NO` (stereo not drawn) is higher in melting point: 91 to 94 °C for the first, 230 °C for the second.

Compared with `CCCC(C)(c1ccc(F)cc1)c1cc(O)c2c3c(c(=O)oc2c1)CCC3` (stereo not drawn), `O=C1CC(c2cccc(-c3noc(CCCO)n3)c2)=Nc2ccc(-c3ccc(F)cc3)cc2N1` is higher in melting point: 133 to 135 °C for the first, 220 to 222 °C for the second.

`COCOC1CCN(c2ccc(NC(=O)c3cnn(-c4ccc(Cl)cc4)c3C)cc2C#N)CC1` and `C#CCNC(=O)c1cccc(-c2ccc3cnc(Nc4ccc(N5CCN(C)CC5)cc4)nn23)c1` cannot be ordered by melting point: 186 to 188 °C for the first, 185 to 187 °C for the second.

Compared with `CCOC(=O)C1C(=O)c2ccccc2OC1C(F)(F)F` (stereo not drawn), `CCOC(=O)COc1cccc2c1CCC(Br)C2=O` (stereo not drawn) is lower in melting point: 80.2 to 84.9 °C for the first, 74 to 75 °C for the second.

First: C[C@@H](NC(=O)c1c[nH]c2ncc(-c3nn(C)c4cc(F)ccc34)nc12)C1(C#N)CCCC1
Second: Cn1cc(-c2nnn[nH]2)c(=O)c2ccc(F)cc21
The melting point of the first is higher: 300 to 315 °C for the first, 290 to 292 °C for the second.

Compared with `CC(=O)NC[C@H]1CN(c2ccc(N3CCN(C(=O)CCC(=O)c4ccc(C(N)=O)cc4)CC3)c(F)c2)C(=O)O1`, `CC(=O)NC[C@H]1CN(c2ccc(N3CCC(O)(C[N+](=O)[O-])CC3)c(F)c2)C(=O)O1` is lower in melting point: > 250 °C for the first, 186 to 187 °C for the second.

Compared with `CC(=O)Cc1ccc(SCCCBr)cc1`, `CCCCCCOC(C)c1ccc(-c2ccc(C(=O)O)cc2)cc1` (single isomer, unassigned; (+)) is higher in melting point: 40 to 41 °C for the first, 154 °C for the second.

Compared with `C#Cc1cccc(Oc2nc(Cl)nc(Oc3cccc(C#C)c3)n2)c1`, `COC(=O)Nc1nccc(Oc2ccc3c(C(=O)Nc4cccc(C(F)(F)F)c4)cccc3c2)n1` is higher in melting point: 121 to 125 °C for the first, 199 to 200 °C for the second.

First: COc1ccc(C)c(Nc2c(C#N)cnc3cc(Cl)c([N+](=O)[O-])cc23)c1
Second: COC(=O)Cc1c(C)n(-c2nc(OC)nc3ccccc23)c2ccc(OC)cc12
The melting point of the first is higher: 180 to 182 °C for the first, 152 to 154 °C for the second.

First: COc1ccccc1-n1c(=O)[nH]c2c(C(N)=O)nc(Nc3ccccc3O)nc21
Second: CC(=O)N(C)c1cccc(-c2nc(=O)c3ccccc3s2)n1
The melting point of the first is higher: 314 to 315 °C for the first, 218 to 220 °C for the second.

First: CC(C)(C)c1cc(C(=O)N2CCN(c3ccc([N+](=O)[O-])cc3)CC2)cc(C(C)(C)C)c1O
Second: CC(C)(C)OC(=O)N1CCN(c2ccc(OC[C@H]3CCn4cc([N+](=O)[O-])nc4O3)cc2)CC1
The melting point of the first is lower: 160 °C for the first, 207 to 208 °C for the second.

First: CC(C)C[C@H](NS(=O)(=O)c1ccc2c(c1)Sc1ccccc1O2)C(=O)O
Second: CN(c1nc(-c2cc3ccccc3[nH]c2=O)cs1)S(=O)(=O)c1ccc(Br)cc1
The melting point of the first is lower: 120 to 130 °C for the first, 280 to 282 °C for the second.

First: c1ccc(N2CCN(CCCCc3cccnc3)CC2)nc1
Second: O=c1c(CCCCCc2ccncc2)cc2cccnc2n1-c1cccc([N+](=O)[O-])c1
The melting point of the first is lower: 54 to 64 °C for the first, 189 to 190 °C for the second.

First: Cc1ccc(NCCNS(C)(=O)=O)cc1O
Second: COC(=O)c1ccccc1S(=O)(=O)NCC#N
The melting point of the first is higher: 145 °C for the first, 110 °C for the second.

Compared with `CCC(C)c1ccc2c(c1)C(=O)N(c1ccc3c(ccn3C)c1)C2` (stereo not drawn), `CNCC1CN(c2ccc3ccccc3c2)C(=O)O1` (stereo not drawn) is lower in melting point: 146 to 147 °C for the first, 76.5 to 78 °C for the second.

`CCOC(=O)CCCn1c(=O)c2sc(N)nc2n(C)c1=O` and `CCCCN1C(=O)NC(=Cc2cc(OC)c(OC)cc2OC)C1=O` cannot be ordered by melting point: 170 to 171 °C for the first, 170 °C for the second.

First: CC(=CC(=O)Nc1ccc(C(=O)O)cc1)c1cc(C(C)C)c(C(C)C)o1
Second: CCCN(CCC)c1ccccc1C(C)C(C(N)=O)c1ccc(C(=O)O)cc1 (stereo not drawn)
The melting point of the first is higher: 232 to 235 °C for the first, 175 to 178 °C for the second.

Compared with `CC(=O)SCC(C(=O)NC(CC(=O)O)Cc1ccccc1)C(F)(F)F` (stereo not drawn), `CCCCCCCNC(=O)N(C)c1cccc(-c2cc(F)c(CCC(=O)O)c(F)c2)c1` is lower in melting point: 171 to 172 °C for the first, 86 °C for the second.

Compared with `COC(=O)C(Cc1ccccc1)Oc1ccc2cc(CN(C)C(=O)c3oc4ccccc4c3CCc3ccccc3)ccc2c1Br` (stereo not drawn), `COc1ccc(Cn2c(=O)c3ccc4ccccc4c3c3c4ccccc4ccc32)cc1` is higher in melting point: 29 to 32 °C for the first, 229 °C for the second.

First: CSC(=NC(=O)N(C)C)NC(=O)N(C)C
Second: CC(=O)NN=C(C)c1ccc(C)nc1
The melting point of the first is lower: 116 to 118 °C for the first, 178 °C for the second.

First: Cc1ccc(Cc2cnc(NCCSCc3cc(CN(C)C)ccn3)[nH]c2=O)cn1
Second: COc1nc(C)cnc1NS(=O)(=O)c1cccnc1-c1ccc(N(C)C)cc1
The melting point of the first is lower: 128 to 130 °C for the first, 183 to 184 °C for the second.

First: Cn1nc(N)nc1NCCCOc1cccc(C2OCCO2)c1
Second: COc1cccc(S(=O)(=O)Nc2nccnc2OC)c1
The melting point of the first is lower: 117 to 118 °C for the first, 133 to 134 °C for the second.

First: CN1C(=O)C(C)(C)C(=O)Nc2ccc(C#N)cc21
Second: CC1=C(C(=O)OC(C)C)C(c2cccc([N+](=O)[O-])c2)n2c(cc(=O)n2C(=O)OC(C)C)N1 (stereo not drawn)
The melting point of the first is higher: 250 to 251 °C for the first, 162 to 164 °C for the second.

Compared with `COC(=O)c1ccc(CC#N)cc1S(=O)(=O)NC(C)(C)C`, `C=Cc1cc(CNC(=O)OC(C)(C)C)cc(Cl)c1NS(C)(=O)=O` is higher in melting point: 86 to 88 °C for the first, 133 to 135 °C for the second.

Compared with `CCCCCc1ccc(-c2cnc(-c3ccc(C#N)cc3)nc2)cc1`, `N#Cc1ccc(OCCCCOc2ccc(-c3cc4cc(C#N)ccc4o3)cc2)cc1` is higher in melting point: 126 °C for the first, 186 to 188 °C for the second.

Compared with `COc1cc(-c2ccc(C(C)C)cc2)c(C)c2oc(=O)c(C)c(C)c12`, `Cc1cc(C)c2cccc(OCc3c(C)ccc(N(C)C(=O)CN)c3C)c2n1` is lower in melting point: 172 °C for the first, 145 to 148 °C for the second.

First: CC(C)(C)C(=O)c1ccc(C(=O)N(C(=O)c2ccc(C(=O)C(C)(C)C)cc2)C(=O)c2ccccc2C(=O)C(C)(C)C)cc1
Second: Cc1ccc(S(=O)(=O)OCCCOc2ccc([N+](=O)[O-])c(CS(=O)(=O)c3cccc4ccccc34)c2)cc1
The melting point of the first is higher: 185 to 188 °C for the first, 162 to 164 °C for the second.

First: CN(C)C=Nc1c(S(=O)C(F)(F)F)c(-c2ncon2)nn1-c1c(Cl)cc(C(F)(F)F)cc1Cl (stereo not drawn)
Second: Cc1cc(Oc2c(Cl)cc(C(F)(F)F)cc2Cl)nn1C(=S)NC(C)C
The melting point of the first is higher: 140 °C for the first, 92 to 94 °C for the second.

Compared with `COCCC(=O)N[C@H]1CC[C@H](CCN2CCN(c3nc(C)cc4c3CCO4)CC2)CC1`, `CCOC(=O)c1oc2c(C(=O)NCCCN3CCN(c4cc(Cl)ccc4OC)CC3)cccc2c(=O)c1C` is lower in melting point: 178 °C for the first, 107 to 115 °C for the second.

First: CCOC(=O)C1=C(C)NC(C(OC)OC)=C(C(=O)OC)C1c1ccccc1[N+](=O)[O-] (stereo not drawn)
Second: CCCCCCCCCCCC1N(C(C)=O)c2ccccc2-c2c([N+](=O)[O-])cnn21 (stereo not drawn)
The melting point of the first is higher: 122 to 124 °C for the first, 83 to 85 °C for the second.

First: CCNC(=O)N1CCC(c2[nH]nc3c2C(=O)c2c(NC(=O)NN4CCOCC4)cccc2-3)CC1
Second: O=c1[nH]c2ncc(-c3ccc4cc[nH]c4c3)nc2n1CC1CCCCC1
The melting point of the first is lower: 215 to 216 °C for the first, 359 to 363 °C for the second.

First: CC(=O)Nc1cc(O)ccc1-c1cc(=O)c2ccccc2o1
Second: COc1ccc(C(=O)Nc2ccccc2)cc1NC(=S)Nc1ccc(Cl)c(Cl)c1
The melting point of the first is higher: 253 to 255 °C for the first, 174 to 175 °C for the second.

First: C=CCSc1ccc(-c2nc3cnncc3[nH]2)c(OC)c1
Second: Oc1nc2ccc3nccnc3c2nc1O
The melting point of the first is lower: 240 °C for the first, > 300 °C for the second.

First: CCN(CC)CCOc1ccc(N(C(=O)Nc2ccccc2)C2=NN(c3ccccc3)CC2)cc1
Second: O=C(Nc1ccccc1)N1C(=O)[C@H](O)[C@@H]1c1ccccc1
The melting point of the first is lower: 140 to 141 °C for the first, 197 to 200 °C for the second.

Compared with `Nc1ncnc2c1c(I)cn2COCCO`, `CCCCCCCOc1c(OC)cc(N)c2nccc(C)c12` is lower in melting point: 169 to 170 °C for the first, 68 to 70 °C for the second.

Compared with `CCCCCCCCCCCCC/C=C(\C(=O)Nc1ccc(C(=O)OC)cc1)c1ccc2c(c1)C(C)(C)CCC2(C)C`, `CCCCOP(=O)(C/C=C/CC1(C(=O)NCCC)c2cc(F)ccc2-c2ccc(F)cc21)OCCCC` is higher in melting point: 93 to 94 °C for the first, 142 to 146 °C for the second.

First: Cc1ccnc(C(=O)c2[nH]c3ccc(Cl)cc3c2CC(=O)O)c1C
Second: O=C(Nc1nc2ccc(Cl)cc2c2c1ncn2-c1ccccc1Cl)c1ccccc1
The melting point of the first is lower: 236 to 237 °C for the first, 255 to 258 °C for the second.

First: COc1cc(OC)c(OC)c(OC)c1OC
Second: COc1ccc(C2=NN(SC(C)C)C(=O)C2(SC(C)C)SC(C)C)cc1
The melting point of the first is higher: 59 to 61 °C for the first, 52 to 54 °C for the second.

First: CS(=O)(=O)N1CCN(c2ccc(N)cc2)CC1
Second: CS(=O)(=O)N1CCN(c2cc(Cl)ncn2)CC1
The melting point of the first is lower: 192 to 193 °C for the first, 200 to 202 °C for the second.

First: CCN1c2ncccc2C(=O)Nc2c1nc(N(C)C)c(Br)c2C
Second: O=c1[nH]cnc2cccnc12
The melting point of the first is lower: 184 to 186 °C for the first, 343 to 345 °C for the second.

Compared with `O=Cc1ccc(N(CCO)CCO)cc1`, `CCN(CC)c1ccc2c(c1)[C@@H]1[C@H](C2)c2ccc(N(CC)CC)cc2N1C(C)=O` (relative stereo) is higher in melting point: 63 to 64 °C for the first, 137 to 138 °C for the second.

First: OCCCCC=CCCc1ccc(OCc2ccccc2)cc1
Second: c1ccc(C2(c3ccccc3)Oc3ccc(-c4nnn[nH]4)cc3O2)cc1
The melting point of the first is lower: 65 to 67 °C for the first, 212 to 215 °C for the second.

First: Nc1cc(C(=O)Nc2ccncc2)ccc1OCC1CCCCC1
Second: COc1ccc(NC(=O)c2ccc(-c3ccc(-c4noc(C)n4)cc3)cc2)cc1N1CCN(C)CC1
The melting point of the first is higher: 193 to 194 °C for the first, 135 to 137 °C for the second.

First: CCOc1nc2cc(C)nn2c2c1cnc1c2cnn1CC
Second: CC(C)NC(=S)Nc1ccc(Cl)c(-c2ccnc3c(C(=O)c4cccs4)cnn23)c1
The melting point of the first is lower: 142 to 144 °C for the first, 194 to 195 °C for the second.

First: CC(C)(C)OC(=O)NO[C@H]1CC=C[C@H]1NC(=O)OCC(Cl)(Cl)Cl
Second: O=C(NO)c1cnc(NS(=O)(=O)c2ccc(C(=O)Nc3ccc(Cl)c(-c4ccccn4)c3)c(Cl)c2)nc1
The melting point of the first is lower: 83 to 84 °C for the first, 215 to 220 °C for the second.

Compared with `Cc1[nH]cnc1CSCCN(C)C(N)=S`, `COC1(F)C=CC=C(c2cc(CBr)c(=O)n(Cc3ccc(F)cc3)n2)C1` (stereo not drawn) is lower in melting point: 149 to 151 °C for the first, 120 to 125 °C for the second.
